Measurements from patent publication US5332740A, “DC-89 derivatives” (priority 1990, dated 1994).

Assays:
ddY-strain male mice = assay: Acute Toxicity Test; format: in vivo; conditions: intraperitoneal; mortality observed for 14 days after the administration
Procedure: A test compound was intraperitoneally administered to ddY-strain male mice each weighing 20±1 g. MLD (the minimum lethal dose) was determined by observing the mortality for 14 days after the administration.

melanoma B-16 = conditions: against melanoma B-16; cited from earlier work
various bacteria = conditions: against various bacteria; cited from earlier work
Sarcoma 180 tumor = assay: Therapeutic Effect against Sarcoma 180 Tumor; format: in vivo, male ddY-strain mice; conditions: single intravenous, average tumor volume treated/control, seven days after implantation
Procedure: Therapeutic Effect against Sarcoma 180 Tumor
Five male ddY-strain mice each having a weight of 18 to 20 g were used for each group as test animals, and 5×10^5 Sarcoma 180 tumor cells were implanted subcutaneously into the animals at the axilla. One day after the implantation, 0.2 ml of physiological saline containing Compound (I) at the concentration indicated in Table 3 was intravenously administered to each mouse. T/C [T: average tumor volume (mm^3) of the group treated with the test compound, C: that of the control group which received an intravenous administration of 0.2 ml of physiological saline] was determined seven days after the implantation.

Row | SMILES | Acute Toxicity (MLD), minimum lethal dose (ddY-strain male mice) [mg/kg] | anti-tumor activity (melanoma B-16) | antibacterial activity (various bacteria) | other results
1 | COC(=O)C1(C)Nc2c(OC(=O)N3CCN(C)CC3)cc3c(c2C1=O)CC(Cl)CN3C(=O)c1cc2cc(OC)c(OC)c(OC)c2[nH]1 (stereo not shown) [Compound 14] | > 16 | – | – | –
2 | COC(=O)C1(C)Nc2c(O)cc3c(c2C1=O)CC(Br)CN3C(=O)c1cc2cc(OC)c(OC)c(OC)c2[nH]1 (stereo not shown) [DC-89B1] | – | show an anti-tumor activity against melanoma B-16 | exhibit an antibacterial activity against various bacteria | –
3 | COC(=O)C1(C)Nc2c(OC(=O)N3CCN(CCN)CC3)cc3c(c2C1=O)CC(Br)CN3C(=O)c1cc2cc(OC)c(OC)c(OC)c2[nH]1 (stereo not shown) [Compound 4] | 2.0 | – | – | T/C (Sarcoma 180 tumor; dose 1.0 mg/kg, 1 mg/kg): 0.047
4 | COC(=O)C1(C)Nc2c(OC(=O)N3CCN(C)CC3)cc3c(c2C1=O)CC(Br)CN3C(=O)c1cc2cc(OC)c(OC)c(OC)c2[nH]1 (stereo not shown) [Compound 2] | 5.2 | – | – | T/C (Sarcoma 180 tumor; dose 1.0 mg/kg): 0.19; T/C (Sarcoma 180 tumor; dose 2.0 mg/kg): 0.083
5 | COC(=O)C1(C)Nc2c(OC(=O)N3CCN(CCN)CC3)cc3c(c2C1=O)CC(Br)CN3C(=O)c1cc2cc(OC)c(OC)c(OC)c2[nH]1 (stereo not shown) [Compound 3] | 2.0 | – | – | T/C (Sarcoma 180 tumor; dose 0.50 mg/kg): 0.25; T/C (Sarcoma 180 tumor; dose 1.0 mg/kg, 1 mg/kg): 0.094
6 | COC(=O)C1(C)Nc2c(OC(=O)N3CCC(N4CCCCC4)CC3)cc3c(c2C1=O)CC(Br)CN3C(=O)c1cc2cc(OC)c(OC)c(OC)c2[nH]1 (stereo not shown) [Compound 6] | 4.0 | – | – | –
7 | COC(=O)c1c(C)[nH]c2c(O[Si](C)(C)C(C)(C)C)cc3c(c12)CC(Br)CN3C(=O)c1cc2cc(OC)c(OC)c(OC)c2[nH]1 (stereo not shown) [Compound 7] | 4.0 | – | – | T/C (Sarcoma 180 tumor; dose 1.0 mg/kg): 0.13; T/C (Sarcoma 180 tumor; dose 2.0 mg/kg): 0.025
8 | COc1cc2cc(C(=O)N3CC(Br)Cc4c3cc(OC(=O)N(C)C)c3[nH]c(C)cc43)[nH]c2c(OC)c1OC (stereo not shown) [Compound 9] | 0.50 | – | – | T/C (Sarcoma 180 tumor; dose 0.25 mg/kg): 0.15; T/C (Sarcoma 180 tumor; dose 0.50 mg/kg): 0.068
9 | COC(=O)c1c(C)[nH]c2c(O[Si](C)(C)C(C)(C)C)cc3c(c12)CC(Cl)CN3C(=O)c1cc2cc(OC)c(OC)c(OC)c2[nH]1 (stereo not shown) [Compound 10] | > 8.0 | – | – | –
10 | COC(=O)C1(C)Nc2c(O)cc3c(c2C1=O)CC(Cl)CN3C(=O)c1cc2cc(OC)c(OC)c(OC)c2[nH]1 (stereo not shown) [DC-89A1] | – | show an anti-tumor activity against melanoma B-16 | exhibit an antibacterial activity against various bacteria | –
11 | COc1cc2cc(C(=O)N3CC(Br)Cc4c3cc(O[Si](C)(C)C(C)(C)C)c3[nH]c(C)cc43)[nH]c2c(OC)c1OC (stereo not shown) [Compound 8] | 8.0 | – | – | T/C (Sarcoma 180 tumor; dose 2.0 mg/kg): 0.19
12 | COC(=O)C1(C)Nc2c(O)cc3c(c2C1=O)C(CBr)CN3C(=O)c1cc2cc(OC)c(OC)c(OC)c2[nH]1 (stereo not shown) [DC-89B2] | – | show an anti-tumor activity against melanoma B-16 | exhibit an antibacterial activity against various bacteria | –
13 | COC(=O)C1(C)NC2=C(C1=O)C13CC1CN(C(=O)c1cc4cc(OC)c(OC)c(OC)c4[nH]1)C3=CC2=O (stereo not shown) [DC-88A] | – | exhibits an anti-tumor activity against melanoma B-16 | shows an antibacterial activity against a variety of bacteria | –
14 | COC(=O)C1(C)Nc2c(OC(=O)N3CCC(N4CCCCC4)CC3)cc3c(c2C1=O)CC(Br)CN3C(=O)c1cc2cc(OC)c(OC)c(OC)c2[nH]1 (stereo not shown) [Compound 5] | 2.0 | – | – | –
15 | COc1cc2cc(C(=O)N3CC(Cl)Cc4c3cc(O[Si](C)(C)C(C)(C)C)c3[nH]c(C)cc43)[nH]c2c(OC)c1OC (stereo not shown) [Compound 11] | > 8.0 | – | – | –
16 | COC(=O)C1(C)Nc2c(O)cc3c(c2C1=O)C(CCl)CN3C(=O)c1cc2cc(OC)c(OC)c(OC)c2[nH]1 (stereo not shown) [DC-89A2] | – | show an anti-tumor activity against melanoma B-16 | exhibit an antibacterial activity against various bacteria | –
